Data reported in US20070111267A1, “Method of determining efficacy of anticancer drug and determination kit therefor” (priority 2003, published 2007).
Where a name gives a salt, the structure may show the parent alone.

How the values were obtained:
KYO-1 = assay: Sensitivity of cell line to the tyrosine kinase inhibitor; assay type: cell-based, human; settings: KYO-1 cell line
Excerpt: KYO-1: human CML cell line. Expression of Bcr-Abl protein. Resistant to Bcr-Abl inhibitor. See Leukemia Research 9: 921-926, (1985).
(§1) One to two μM STI571 was directly added to a cell culture.

HEL = assay: as above; assay type: cell-based, human
Excerpt: HEL: human erythrocytic leukemia cell line. No expression of Bcr-Abl protein. Resistant to Bcr-Abl inhibitor.
as §1

K562 = assay: as above; assay type: cell-based, human
Excerpt: K562: human CML cell line. Expression of Bcr-Abl protein. Sensitive to Bcr-Abl inhibitor.
as §1

MOLM1 = assay: as above; assay type: cell-based, human
Excerpt: MOLM1: human CML cell line. Expression of Bcr-Abl protein. Sensitive to Bcr-Abl inhibitor.
as §1

CMK = assay: as above; assay type: cell-based, human
Excerpt: CMK: human megakaryocytic leukemia cell line. No expression of Bcr-Abl protein. Resistant to Bcr-Abl inhibitor.
as §1

MEG = assay: as above; assay type: cell-based, human
Excerpt: MEG: human CML cell line. Expression of Bcr-Abl protein. Sensitive to Bcr-Abl inhibitor.
as §1

p27 protein = settings: reported in Tomoda K et al. J Biol Chem. 2002; cited from earlier work

SMILES | Sensitivity to the tyrosine kinase inhibitor (KYO-1) | Sensitivity to the tyrosine kinase inhibitor (HEL) | Sensitivity to the tyrosine kinase inhibitor (K562) | Sensitivity to the tyrosine kinase inhibitor (MOLM1) | Sensitivity to the tyrosine kinase inhibitor (CMK) | Sensitivity to the tyrosine kinase inhibitor (MEG) | degradation of p27 protein by the Jab1 small complex (p27 protein)
Cc1ccc(NC(=O)c2ccc(CN3CCN(C)CC3)cc2)cc1Nc1nccc(-c2cccnc2)n1 [tyrosine kinase inhibitor, imatinib mesylate] | resistant | resistant | sensitive | sensitive | resistant | sensitive | 
CCC(=C/[C@H](C)C/C=C/C(C)=C/[C@@H](C)C(=O)[C@@H](C)[C@H](O)[C@@H](C)C/C(C)=C/C(=O)O)/C=C/[C@@H]1OC(=O)C=C[C@@H]1C [leptomycin B] |  |  |  |  |  |  | inhibited
